Measured values: patent US6090834A, “Substituted oxazoles for the treatment of inflammation” (G.D. Searle & Co., priority 1998, dated 2000)

Key:
COX-2 = COX-2 activity in vitro (PGE2 formed, ELISA); assay type: biochemical, human or murine; details: recombinant enzyme, arachidonic acid 10 μM, pH 8.0; read-out: COX II ID50
Procedure: (§1) Evaluation of COX I and COX II activity in vitro
(§2) The COX-2 inhibition activity of the compounds of this invention illustrated in the Examples was determined by the following methods. a. Preparation of recombinant COX baculoviruses
(§3) Recombinant COX-1 and COX-2 were prepared as described by Gierse et al, [J. Biochem., 305, 479-84 (1995)]. A 2.0 kb fragment containing the coding region of either human or murine COX-1 or human or murine COX-2 was cloned into a BamH1 site of the baculovirus transfer vector pVL1393 (Invitrogen) to generate the baculovirus transfer vectors for COX-1 and COX-2 in a manner similar to the method of D. R. O'Reilly et al (Baculovirus Expression Vectors: A Laboratory Manual (1992)). Recombinant baculoviruses were isolated by transfecting 4 μg of baculovirus transfer vector DNA into SF9 insect cells (2×10^8) along with 200 ng of linearized baculovirus plasmid DNA by the calcium phosphate method. See M. D. Summers and G. E. Smith, A Manual of Methods for Baculovirus vectors and Insect Cell Culture Procedures, Texas Agric. Exp. Station Bull. 1555 (1987). Recombinant viruses were purified by three rounds of plaque purification and high titer (10^7 -10^8 pfu/ml) stocks of virus were prepared. For large scale production, SF9 insect cells were infected in 10 liter fermentors (0.5×10^6 /ml) with the recombinant baculovirus stock such that the multiplicity of infection was 0.1. After 72 hours the cells were centrifuged and the cell pellet homogenized in Tris/Sucrose (50 mM: 25%, pH 8.0) containing 1% 3-[(3-cholamidopropyl)dimethylammonio]-1-propanesulfonate (CHAPS). The homogenate was centrifuged at 10,000×G for 30 minutes, and the resultant supernatant was stored at -80° C. before being assayed for COX activity. […]
(§4) b. Assay for COX-1 and COX-2 activity
(§5) COX activity was assayed as PGE2 formed/μg protein/time using an ELISA to detect the prostaglandin released. CHAPS-solubilized insect cell membranes containing the appropriate COX enzyme were incubated in a potassium phosphate buffer (50 mM, pH 8.0) containing epinephrine, phenol, and heme with the addition of arachidonic acid (10 μM). Compounds were pre-incubated with the enzyme for 10-20 minutes prior to the addition of arachidonic acid. Any reaction between the arachidonic acid and the enzyme was stopped after ten minutes at 37° C./room temperature by transferring 40 μl of reaction mix into 160 μl ELISA buffer and 25 μM indomethacin. The PGE2 formed was measured by standard ELISA technology (Cayman Chemical).

COX-1 = COX-1 activity in vitro (PGE2 formed, ELISA); assay type: biochemical, human or murine; details: recombinant enzyme, arachidonic acid 10 μM, pH 8.0; read-out: COX-1 ID50
Procedure: as §1, §2, §3, §4, §5

Row | IC50 (COX-2) | IC50 (COX-1) | Compound
1 | < 0.1 µM | 1 µM | NS(=O)(=O)c1ccc(-c2oc(Oc3cccc(Cl)c3)nc2-c2ccccc2)cc1 [Example 47]
2 | 0.5 µM | > 10 µM | CS(=O)(=O)c1ccc(-c2oc(-c3ccccc3)nc2C2CCCCC2)cc1 [Example 25, 4-(cyclohexyl)-5-[4-(methylsulfonyl)phenyl]-2-phenyloxazole]
3 | < 0.1 µM | 72 µM | NS(=O)(=O)c1ccc(-c2oc(CC(=O)O)nc2-c2ccccc2)cc1 [Example 38, [5-(4-aminosulfonylphenyl)-4-phenyl]-2-oxazoleaceticacid]
4 | < 0.1 µM | 0.4 µM | NS(=O)(=O)c1ccc(-c2nc(C(F)(F)F)oc2-c2ccc(Cl)cc2)cc1 [Example 59, 4-[5-(4-chlorophenyl)-2-trifluoromethyl-4-oxazolyl]benzenesulfonamide]
5 | < 0.1 µM | > 100 µM | NS(=O)(=O)c1ccc(-c2oc(CO)nc2-c2ccccc2)cc1 [Example 75, 4-[2-hydroxymethyl-4-phenyl-5-oxazolyl]benzenesulfonamide]
6 | 79 µM | > 100 µM | NS(=O)(=O)c1ccc(-c2nc(CC(=O)O)oc2-c2ccc(F)c(Cl)c2)cc1 [Example 39, [4-(4-aminosulfonylphenyl)-5-(3-chloro-4-fluorophenyl)]-2-oxazoleacetic acid]
7 | 0.5 µM | 79 µM | COc1ccc(-c2oc(C)nc2-c2ccc(S(N)(=O)=O)cc2)cc1F [Example 69]
8 | < 0.1 µM | 3 µM | NS(=O)(=O)c1ccc(-c2oc(Oc3c(F)c(F)c(F)c(F)c3F)nc2-c2ccccc2)cc1 [Example 54, 4-[2-(2,3,4,5,6-pentafluorophenoxy)-4-phenyl-5-oxazolyl]benzenesulfonamide]
9 | 0.05 µM | 3.1 µM | CCOC(=O)C(Cc1ccccc1)c1nc(-c2ccc(F)cc2)c(-c2ccc(S(C)(=O)=O)cc2)o1 (stereo not shown) [Example 33]
10 | < 0.1 µM | 2 µM | Cc1ccc(-c2nc(C(F)(F)F)oc2-c2ccc(S(C)(=O)=O)cc2)cc1 [Example 68, 4-(4-methylphenyl)-5-(4-methylsulfonylphenyl)-2-trifluoromethyl-oxazole]
11 | < 0.1 µM | 4.5 µM | CCOC(=O)c1ccccc1Oc1nc(-c2ccccc2)c(-c2ccc(S(N)(=O)=O)cc2)o1 [Example 56, ethyl 2-[[5-(4-aminosulfonylphenyl)-4-phenyl-2-oxazolyl]oxy]benzoate]
12 | 2.1 µM | 0.3 µM | NS(=O)(=O)c1ccc(-c2oc(SCC(=O)O)nc2-c2ccccc2)cc1 [Example 48, 5-(4-aminosulfonylphenyl)-4-phenyl-2-oxazolemercaptoacetic acid]
13 | < 0.1 µM | 26 µM | NS(=O)(=O)c1ccc(-c2nc(CC(=O)O)oc2-c2ccc(Cl)c(Cl)c2)cc1 [Example 40, [4-(4-aminosulfonylphenyl)-5-(3.4-dichlorophenyl)]-2-oxazoleacetic acid]
14 | < 0.1 µM | 15.9 µM | CS(=O)(=O)c1ccc(-c2oc(CCC3CCCCC3)nc2-c2ccc(F)cc2)cc1 [Example 32, 2-(2-cyclohexylethyl)-4-(4-fluorophenyl)-5-[4-(methylsulfonyl)phenyl]oxazole]
15 | < 0.1 µM | 7.4 µM | CSc1nc(-c2ccccc2)c(-c2ccc(S(N)(=O)=O)cc2)o1 [Example 50, 4-[2-Methylthio-4-phenyl-5-oxazolyl]benzenesulfonamide]
16 | 79 µM | > 100 µM | NS(=O)(=O)c1ccc(-c2ocnc2-c2ccccc2)cc1 [Example 44, 4-[4-phenyl-5-oxazolyl]benzenesulfonamide]

Row | IC50 (COX-2) | IC50 (COX-1) | Compound
17 | > 10 µM | > 30 µM | Cc1nc(-c2ccc(S(C)(=O)=O)cc2)c(-c2ccc(F)cc2)o1 [Example 14, 5-(4-Fluorophenyl)-2-methyl-4-[4-(methylsulfonyl)phenyl]oxazole]
18 | < 0.1 µM | 31 µM | CN(C)c1nc(-c2ccccc2)c(-c2ccc(S(N)(=O)=O)cc2)o1 [Example 58, 4-[2-(N,N-dimethylamino)-4-phenyl-5-oxazolyl]benzenesulfonamide]
19 | < 0.1 µM | 11.4 µM | NS(=O)(=O)c1ccc(-c2nc(C(F)(F)F)oc2-c2ccc(F)c(F)c2)cc1 [Example 42, 4-[5-(3.4-difluorophenyl)-2-trifluoromethyl-4-oxazolyl]benzenesulfonamide]
20 | < 0.1 µM | < 0.1 µM | CN(C)c1ccc(-c2nc(C(F)(F)F)oc2-c2ccc(S(N)(=O)=O)cc2)cc1 [Example 65, 4-[4-Dimethylaminophenyl-2-trifluoromethyl-5-oxazolyl]benzenesulfonamide]
21 | < 0.1 µM | 6.5 µM | NS(=O)(=O)c1ccc(-c2oc(Cl)nc2-c2ccccc2)cc1 [Example 45, 4-[2-chloro-4-phenyl-5-oxazolyl]benzenesulfonamide]
22 | < 0.1 µM | 3.2 µM | CCOC(=O)c1cccc(Oc2nc(-c3ccccc3)c(-c3ccc(S(N)(=O)=O)cc3)o2)c1 [Example 57, ethyl 3-[[5-(4-aminosulfonylphenyl)-4-phenyl-2-oxazolyl]oxy]benzoate]
23 | 0.1 µM | 51 µM | COc1c(F)cc(-c2oc(C(F)(F)F)nc2-c2ccc(S(N)(=O)=O)cc2)cc1Br [Example 71, 4-[5-(3-bromo-4-methoxy-5-fluorophenyl)-2-trifluoromethyl-4-oxazolyl]benzenesulfonamide]
24 | < 0.1 µM | 0.2 µM | CCOC(=O)Cc1nc(-c2ccc(S(N)(=O)=O)cc2)c(-c2ccc(OC)c(F)c2)o1 [Example 34, ethyl [4-(4-aminosulfonylphenyl)-5-(3-fluoro-4-methoxyphenyl)]-2-oxazoleacetate]
25 | 0.2 µM | > 30 µM | COC(=O)CCc1nc(-c2ccc(S(C)(=O)=O)cc2)c(-c2ccc(F)cc2)o1 [Example 15, Methyl 3-[5-(4-fluorophenyl)-4-[4-(methylsulfonyl)phenyl]]-2-oxazolepropanoate]
26 | < 0.1 µM | 4.1 µM | NS(=O)(=O)c1ccc(-c2oc(OCC(F)(F)F)nc2-c2ccccc2)cc1 [Example 49]
27 | 60.7 µM | > 100 µM | NS(=O)(=O)c1ccc(-c2nc(CC(=O)O)oc2-c2ccc(F)c(F)c2)cc1 [Example 41]
28 | 13 µM | 21 µM | COc1ccc(-c2oc(CC(=O)O)nc2-c2ccc(S(N)(=O)=O)cc2)cc1F [Example 66, [4-(4-aminosulfonylphenyl)-5-(3-fluoro-4-methoxyphenyl)]-2-oxazoleacetic acid]
29 | 7 µM | 3.4 µM | NS(=O)(=O)c1ccc(-c2nc(CC(=O)O)oc2-c2ccc(Cl)cc2)cc1 [Example 37, [4-(4-aminosulfonylphenyl)-5-(4-chlorophenyl)]-2-oxazoleacetic acid]
30 | < 0.1 µM | 1.1 µM | NS(=O)(=O)c1ccc(-c2oc(C(F)(F)F)nc2-c2ccccc2)cc1 [Example 64, 4-[4-phenyl-2-trifluoromethyl-5-oxazolyl]benzenesulfonamide]
31 | 0.8 µM | 33 µM | NS(=O)(=O)c1ccc(-c2nc(C(Br)C(=O)O)oc2-c2ccc(Cl)cc2)cc1 (stereo not shown) [Example 67]

Row | Compound | IC50 (COX-2) | IC50 (COX-1)
32 | 4-[2-methylsulfinyl)-4-phenyl-5-oxazolyl]benzenesulfonamide [Example 52] |  | 35 µM
33 | 4-[2-(methylsulfonyl)-4-phenyl-5-oxazolyl]benzenesulfonamide [Example 53] | 0.5 µM | 
